# PubChem BioAssay (NCI)
#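 These data come from cells grown in 96-well plates and exposed to compound for 48 hours at five concentrations. Definition used: TGI = concentration required for complete inhibition of growth.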
# Assays:
# Test in all cases: inhibition of tumour cell growth, NCI panel, 48 h
# 786-0 renal = tested on: 786-0 renal
# A498 renal = tested on: A498 renal
# A549 NSCLC = tested on: A549 NSCLC
# ACHN renal = tested on: ACHN renal
# BT-549 breast = tested on: BT-549 breast
# CAKI-1 renal = tested on: CAKI-1 renal
# CCRF-CEM leukemia = tested on: CCRF-CEM leukemia
# COLO 205 colon = tested on: COLO 205 colon
# DU-145 prostate = tested on: DU-145 prostate
# EKVX NSCLC = tested on: EKVX NSCLC
# HCC-2998 colon = tested on: HCC-2998 colon
# HCT-116 colon = tested on: HCT-116 colon
# HCT-15 colon = tested on: HCT-15 colon
# HL-60(TB) leukemia = tested on: HL-60(TB) leukemia
# HOP-62 NSCLC = tested on: HOP-62 NSCLC
# HOP-92 NSCLC = tested on: HOP-92 NSCLC
# HS 578T breast = tested on: HS 578T breast
# HT29 colon = tested on: HT29 colon
# IGROV1 ovarian = tested on: IGROV1 ovarian
# K-562 leukemia = tested on: K-562 leukemia
# KM12 colon = tested on: KM12 colon
# LOX IMVI melanoma = tested on: LOX IMVI melanoma
# M14 melanoma = tested on: M14 melanoma
# MALME-3M melanoma = tested on: MALME-3M melanoma
# MCF7 breast = tested on: MCF7 breast
# MDA-MB-231 breast = tested on: MDA-MB-231 breast
# MDA-MB-435 = tested on: MDA-MB-435
# MDA-N = tested on: MDA-N
# MOLT-4 leukemia = tested on: MOLT-4 leukemia
# NCI-H226 lung = tested on: NCI-H226 lung
# NCI-H23 lung = tested on: NCI-H23 lung
# NCI-H522 lung = tested on: NCI-H522 lung
# NCI/ADR-RES ovarian = tested on: NCI/ADR-RES ovarian
# OVCAR-3 ovarian = tested on: OVCAR-3 ovarian
# OVCAR-4 ovarian = tested on: OVCAR-4 ovarian
# OVCAR-8 ovarian = tested on: OVCAR-8 ovarian
# PC-3 prostate = tested on: PC-3 prostate
# RPMI-8226 leukemia = tested on: RPMI-8226 leukemia
# RXF 393 renal = tested on: RXF 393 renal
# SF-268 CNS = tested on: SF-268 CNS
# SF-295 CNS = tested on: SF-295 CNS
# SF-539 CNS = tested on: SF-539 CNS
# SK-MEL-2 melanoma = tested on: SK-MEL-2 melanoma
# SK-MEL-28 melanoma = tested on: SK-MEL-28 melanoma
# SK-MEL-5 melanoma = tested on: SK-MEL-5 melanoma
# SK-OV-3 ovarian = tested on: SK-OV-3 ovarian
# SN12C renal = tested on: SN12C renal
# SNB-19 CNS = tested on: SNB-19 CNS
# SNB-75 CNS = tested on: SNB-75 CNS
# SR leukemia = tested on: SR leukemia
# SW-620 colon = tested on: SW-620 colon
# T-47D breast = tested on: T-47D breast
# TK-10 renal = tested on: TK-10 renal
# U251 CNS = tested on: U251 CNS
# UACC-257 melanoma = tested on: UACC-257 melanoma
# UACC-62 melanoma = tested on: UACC-62 melanoma
# UO-31 renal = tested on: UO-31 renal
# NCI-H460 lung = tested on: NCI-H460 lung
# OVCAR-5 ovarian = tested on: OVCAR-5 ovarian
structure (smiles),measurement,setting,value
CCCc1[nH]nc(C(N)=O)c1N=NN(C)C,TGI,786-0 renal,> 100 µM
same,TGI,A498 renal,> 100 µM
same,TGI,A549 NSCLC,> 100 µM
same,TGI,ACHN renal,> 100 µM
same,TGI,BT-549 breast,> 100 µM
same,TGI,CAKI-1 renal,> 100 µM
same,TGI,CCRF-CEM leukemia,> 100 µM
same,TGI,COLO 205 colon,> 100 µM
same,TGI,DU-145 prostate,> 100 µM
same,TGI,EKVX NSCLC,> 100 µM
same,TGI,HCC-2998 colon,> 100 µM
same,TGI,HCT-116 colon,> 100 µM
same,TGI,HCT-15 colon,> 100 µM
same,TGI,HL-60(TB) leukemia,> 100 µM
same,TGI,HOP-62 NSCLC,> 100 µM
same,TGI,HOP-92 NSCLC,> 100 µM
same,TGI,HS 578T breast,> 100 µM
same,TGI,HT29 colon,> 100 µM
same,TGI,IGROV1 ovarian,> 100 µM
same,TGI,K-562 leukemia,> 100 µM
same,TGI,KM12 colon,> 100 µM
same,TGI,LOX IMVI melanoma,> 100 µM
same,TGI,M14 melanoma,> 100 µM
same,TGI,MALME-3M melanoma,> 100 µM
same,TGI,MCF7 breast,80 µM
same,TGI,MDA-MB-231 breast,> 100 µM
same,TGI,MDA-MB-435,> 100 µM
same,TGI,MDA-N,> 100 µM
same,TGI,MOLT-4 leukemia,49 µM
same,TGI,NCI-H226 lung,> 100 µM
same,TGI,NCI-H23 lung,> 100 µM
same,TGI,NCI-H522 lung,74.9 µM
same,TGI,NCI/ADR-RES ovarian,> 100 µM
same,TGI,OVCAR-3 ovarian,> 100 µM
same,TGI,OVCAR-4 ovarian,> 100 µM
same,TGI,OVCAR-8 ovarian,> 100 µM
same,TGI,PC-3 prostate,> 100 µM
same,TGI,RPMI-8226 leukemia,> 100 µM
same,TGI,RXF 393 renal,> 100 µM
same,TGI,SF-268 CNS,> 100 µM
same,TGI,SF-295 CNS,> 100 µM
same,TGI,SF-539 CNS,> 100 µM
same,TGI,SK-MEL-2 melanoma,> 100 µM
same,TGI,SK-MEL-28 melanoma,> 100 µM
same,TGI,SK-MEL-5 melanoma,> 100 µM
same,TGI,SK-OV-3 ovarian,> 100 µM
same,TGI,SN12C renal,> 100 µM
same,TGI,SNB-19 CNS,> 100 µM
same,TGI,SNB-75 CNS,> 100 µM
same,TGI,SR leukemia,40.6 µM
same,TGI,SW-620 colon,> 100 µM
same,TGI,T-47D breast,> 100 µM
same,TGI,TK-10 renal,> 100 µM
same,TGI,U251 CNS,> 100 µM
same,TGI,UACC-257 melanoma,> 100 µM
same,TGI,UACC-62 melanoma,> 100 µM
same,TGI,UO-31 renal,> 100 µM
CC(CC(=O)O)(CC(=O)O)c1ccccc1,TGI,786-0 renal,> 100 µM
same,TGI,A498 renal,> 100 µM
same,TGI,A549 NSCLC,> 100 µM
same,TGI,ACHN renal,> 100 µM
same,TGI,BT-549 breast,> 100 µM
same,TGI,CAKI-1 renal,> 100 µM
same,TGI,CCRF-CEM leukemia,> 100 µM
same,TGI,COLO 205 colon,> 100 µM
same,TGI,DU-145 prostate,> 100 µM
same,TGI,EKVX NSCLC,> 100 µM
same,TGI,HCC-2998 colon,> 100 µM
same,TGI,HCT-116 colon,> 100 µM
same,TGI,HCT-15 colon,> 100 µM
same,TGI,HL-60(TB) leukemia,> 100 µM
same,TGI,HOP-62 NSCLC,> 100 µM
same,TGI,HOP-92 NSCLC,> 100 µM
same,TGI,HS 578T breast,> 100 µM
same,TGI,HT29 colon,> 100 µM
same,TGI,IGROV1 ovarian,> 100 µM
same,TGI,K-562 leukemia,> 100 µM
same,TGI,KM12 colon,> 100 µM
same,TGI,LOX IMVI melanoma,> 100 µM
same,TGI,M14 melanoma,> 100 µM
same,TGI,MALME-3M melanoma,> 100 µM
same,TGI,MCF7 breast,> 100 µM
same,TGI,MDA-MB-231 breast,> 100 µM
same,TGI,MDA-MB-435,> 100 µM
same,TGI,MDA-N,> 100 µM
same,TGI,NCI-H226 lung,> 100 µM
same,TGI,NCI-H23 lung,> 100 µM
same,TGI,NCI-H460 lung,> 100 µM
same,TGI,NCI-H522 lung,> 100 µM
same,TGI,NCI/ADR-RES ovarian,> 100 µM
same,TGI,OVCAR-3 ovarian,> 100 µM
same,TGI,OVCAR-4 ovarian,> 100 µM
same,TGI,OVCAR-5 ovarian,> 100 µM
same,TGI,OVCAR-8 ovarian,> 100 µM
same,TGI,PC-3 prostate,> 100 µM
same,TGI,RPMI-8226 leukemia,> 100 µM
same,TGI,RXF 393 renal,> 100 µM
same,TGI,SF-268 CNS,> 100 µM
same,TGI,SF-295 CNS,> 100 µM
same,TGI,SK-MEL-2 melanoma,> 100 µM
same,TGI,SK-MEL-28 melanoma,> 100 µM
same,TGI,SK-MEL-5 melanoma,> 100 µM
same,TGI,SK-OV-3 ovarian,> 100 µM
same,TGI,SN12C renal,> 100 µM
same,TGI,SNB-19 CNS,> 100 µM
same,TGI,SNB-75 CNS,> 100 µM
same,TGI,SR leukemia,> 100 µM
same,TGI,SW-620 colon,> 100 µM
same,TGI,T-47D breast,> 100 µM
same,TGI,TK-10 renal,> 100 µM
same,TGI,U251 CNS,> 100 µM
same,TGI,UACC-257 melanoma,> 100 µM
same,TGI,UACC-62 melanoma,> 100 µM
same,TGI,UO-31 renal,> 100 µM
